According to BindingDB's records for doi:10.7270/Q2H993J6 (Pcmd, 2008):

Each molecule was assayed against Coagulation factor XI (Homo sapiens, UniProt P03951) (assay: FXIa inhibitor IC50 values, dose response, biochemical, hits from 1536-well screen (AID 846)). Settings: pH 7.4; 23 °C.
Chain of Coagulation factor XI (P03951 19-387 limits assumed): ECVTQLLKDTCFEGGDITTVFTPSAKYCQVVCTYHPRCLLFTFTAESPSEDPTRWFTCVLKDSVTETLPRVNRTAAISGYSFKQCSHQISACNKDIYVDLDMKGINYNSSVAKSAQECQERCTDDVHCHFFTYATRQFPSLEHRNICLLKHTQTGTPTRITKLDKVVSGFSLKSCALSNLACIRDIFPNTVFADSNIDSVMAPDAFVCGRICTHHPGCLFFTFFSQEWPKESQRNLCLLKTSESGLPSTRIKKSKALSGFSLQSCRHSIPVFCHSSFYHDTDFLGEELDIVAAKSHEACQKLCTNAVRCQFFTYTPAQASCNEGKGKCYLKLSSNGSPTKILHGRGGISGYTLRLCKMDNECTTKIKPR
Chain of Coagulation factor XI (P03951 388-625 limits assumed): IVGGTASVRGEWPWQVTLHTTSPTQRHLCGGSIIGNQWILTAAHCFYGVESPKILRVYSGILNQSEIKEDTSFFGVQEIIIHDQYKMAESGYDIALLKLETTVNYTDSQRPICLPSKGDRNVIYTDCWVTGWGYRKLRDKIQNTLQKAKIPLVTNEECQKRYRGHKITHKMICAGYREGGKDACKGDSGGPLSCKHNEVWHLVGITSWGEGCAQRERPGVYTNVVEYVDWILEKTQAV

**Q.** For `Cc1ccc2c(CN3CCN(Cc4ccc5c(c4)OCO5)CC3)cc(=O)oc2c1C` [4-[[4-(1,3-benzodioxol-5-ylmethyl)-1-piperazinyl]methyl]-7,8-dimethyl-1-benzopyran-2-one], which IC50 is on record?
**A.** The IC50 was greater than 50 µM.

**Q.** With `CCCOC(=O)c1ccc(Oc2c[nH]nc2-c2ccc(OCC(=O)NN)cc2O)cc1` [4-[[(3E)-3-[4-(2-hydrazinyl-2-oxoethoxy)-6-oxo-1-cyclohexa-2,4-dienylidene]-1,2-dihydropyrazol-4-yl]oxy]benzoic acid propyl ester] as the molecule, how does the IC50 read?
**A.** Its IC50 is greater than 50 µM.

**Q.** How did the IC50 turn out when `CCCN(CCC)S(=O)(=O)c1ccc(C(=O)NNc2nc(-c3ccccc3)c3cc(Br)ccc3n2)cc1` [4-[[(6-bromo-4-phenylquinazolin-2-yl)amino]carbamoyl]-N,N-dipropylbenzenesulfonamide] was run?
**A.** Its IC50 is greater than 50 µM.

**Q.** Which IC50 does the source give for `O=C(Nc1nc(-c2cccs2)cs1)c1ccc(Cl)cc1` [4-chloro-N-(4-thiophen-2-yl-2-thiazolyl)benzamide] here?
**A.** The IC50 was 17.3 µM.

**Q.** With `O=C(Oc1ccc(=O)n(-c2ccccc2)n1)c1ccc(Cl)cc1` [4-chlorobenzoic acid (6-oxo-1-phenyl-3-pyridazinyl) ester] as the molecule, how does the IC50 read?
**A.** The IC50 was 5.6 µM.

**Q.** With `CCOC(=O)Cc1csc(NC(=O)CC(C)(C)CC(=O)O)n1` [5-[[4-(2-ethoxy-2-oxidanylidene-ethyl)-1,3-thiazol-2-yl]amino]-3,3-dimethyl-5-oxidanylidene-pentanoic acid] as the molecule, how does the IC50 read?
**A.** The IC50 was greater than 50 µM.

**Q.** How did the IC50 turn out when `O=C(NNC(=O)c1cccs1)c1ccc(Br)o1` [5-bromo-N'-(thiophene-2-carbonyl)furan-2-carbohydrazide] was run?
**A.** Its IC50 is 8.51 µM.

**Q.** For `CC1=CCC2C(=O)N(C(C)c3ccccc3)C(=O)C2C1` (configuration not stated) [5-methyl-2-(1-phenylethyl)-3a,4,7,7a-tetrahydro-1H-isoindole-1,3(2H)-dione], which IC50 is on record?
**A.** The IC50 was greater than 50 µM.

**Q.** For `C=CCOC(=O)C1C(C)=Nc2[nH]c(=O)[nH]c(=O)c2C1c1ccccc1` (configuration not stated) [7-methyl-2,4-dioxo-5-phenyl-5,8-dihydro-1H-pyrido[2,3-d]pyrimidine-6-carboxylic acid prop-2-enyl ester], which IC50 is on record?
**A.** Its IC50 is greater than 50 µM.

**Q.** For `CCSc1nnc(NC(=O)[C@H](C)N2C(=O)C3CC=CCC3C2=O)s1` (stereo partly drawn) [(2S)-2-(1,3-dioxo-3a,4,7,7a-tetrahydroisoindol-2-yl)-N-[5-(ethylthio)-1,3,4-thiadiazol-2-yl]propanamide], which IC50 is on record?
**A.** Its IC50 is greater than 50 µM.

**Q.** Which IC50 does the source give for `O=S(=O)([N-]c1nc2ccccc2nc1-[n+]1ccn(Cc2ccccc2)c1)c1ccc(Cl)cc1` [(4-chlorophenyl)sulfonyl-[3-[3-(phenylmethyl)imidazol-3-ium-1-yl]quinoxalin-2-yl]azanide] here?
**A.** Its IC50 is greater than 50 µM.

**Q.** Which IC50 does the source give for `Oc1ccc(CN=Nc2nc(-c3cccnc3)nc3ccccc23)c(O)c1` [(4E)-3-hydroxy-4-[[2-(2-pyridin-3-ylquinazolin-4-yl)hydrazinyl]methylidene]cyclohexa-2,5-dien-1-one] here?
**A.** Its IC50 is greater than 50 µM.

**Q.** Which IC50 does the source give for `Cn1cccc1/C=C1\C(=O)NC(=O)N(Cc2ccccc2Cl)C1=O` [(5E)-1-[(2-chlorophenyl)methyl]-5-[(1-methylpyrrol-2-yl)methylidene]-1,3-diazinane-2,4,6-trione] here?
**A.** The IC50 was greater than 50 µM.

**Q.** With `O=C(Oc1ccc(=O)n(-c2ccccc2)n1)c1cccc(Cl)c1` [(6-oxidanylidene-1-phenyl-pyridazin-3-yl) 3-chloranylbenzoate] as the molecule, how does the IC50 read?
**A.** The IC50 was 1.71 µM.

**Q.** How did the IC50 turn out when `CC/C=C/C(=O)N1CC2(CC(c3cccc(NC(=O)CCCCC)c3)=NO2)C[C@H]1C(N)=O` (stereo partly drawn) [(8S)-3-[3-(hexanoylamino)phenyl]-7-[(E)-pent-2-enoyl]-1-oxa-2,7-diazaspiro[4.4]non-2-ene-8-carboxamide] was run?
**A.** Its IC50 is 9.23 µM.

**Q.** With `N#C/C(=C\c1cccnc1)c1nc2ccccc2[nH]1` [(E)-2-(1H-Benzoimidazol-2-yl)-3-pyridin-3-yl-acrylonitrile] as the molecule, how does the IC50 read?
**A.** Its IC50 is greater than 50 µM.

**Q.** Which IC50 does the source give for `CCN(C(=O)COC(=O)/C=C/c1c(C)nn(-c2ccccc2)c1C)C1CCS(=O)(=O)C1` (configuration not stated) [(E)-3-(3,5-dimethyl-1-phenyl-4-pyrazolyl)-2-propenoic acid [2-[(1,1-dioxo-3-thiolanyl)-ethylamino]-2-oxoethyl] ester] here?
**A.** The IC50 was greater than 50 µM.

**Q.** For `CC(=O)c1ccc(NC(=O)C(Cl)=Cc2ccccc2)cc1` [(Z)-N-(4-acetylphenyl)-2-chloro-3-phenyl-2-propenamide], which IC50 is on record?
**A.** Its IC50 is greater than 50 µM.

**Q.** Which IC50 does the source give for `CC(Cc1ccccc1)=NNC(=O)CNC(=O)C=Cc1ccccc1` [(Z)-N-[2-oxo-2-[2-(1-phenylpropan-2-ylidene)hydrazinyl]ethyl]-3-phenyl-2-propenamide] here?
**A.** The IC50 was greater than 50 µM.

**Q.** With `O=C1c2ccccc2C(=O)N1OS(=O)(=O)c1ccccc1` [Benzenesulfonic acid 1,3-dioxo-1,3-dihydro-isoindol-2-yl ester] as the molecule, how does the IC50 read?
**A.** The IC50 was 1.4 µM.

**Q.** For `COc1ccc(OC)c(S(=O)(=O)N2CCCC(C)C2)c1` (configuration not stated) [MLS000035543], which IC50 is on record?
**A.** The IC50 was greater than 50 µM.

**Q.** With `COC(=O)c1[nH]c2cc(OC)ccc2c1NC(=O)CCN1CCCCC1` [MLS000041334] as the molecule, how does the IC50 read?
**A.** Its IC50 is greater than 50 µM.

**Q.** How did the IC50 turn out when `O=C(Cc1cccs1)Nc1nnc(CCc2ccccc2)s1` [MLS000064221] was run?
**A.** The IC50 was greater than 50 µM.

**Q.** For `FC(F)C(F)(F)C(F)(F)C(F)(F)c1cc(-c2ccccc2)n[nH]1` [MLS000106686], which IC50 is on record?
**A.** Its IC50 is greater than 50 µM.

**Q.** Which IC50 does the source give for `C/C=C(\C)C(=O)OC1c2c(ccc3ccc(=O)oc23)OC(C)(C)C1OC(C)=O` (configuration not stated) [MLS000121833] here?
**A.** The IC50 was greater than 50 µM.

**Q.** How did the IC50 turn out when `CCOC(=O)c1sc(NC(=O)CSC(=S)N2CCN(C)CC2)nc1C` [MLS000332299] was run?
**A.** Its IC50 is greater than 50 µM.

**Q.** For `O=C(Oc1ccc2c(=O)c(Cl)coc2c1)c1cccnc1` [MLS000523505], which IC50 is on record?
**A.** Its IC50 is greater than 50 µM.

**Q.** `CCOC(=O)CSc1nnc(-c2ccccc2)o1` [MLS000526656] was tested. Which IC50 did it give?
**A.** The IC50 was greater than 50 µM.

**Q.** Which IC50 does the source give for `O=C1NN(c2ccccc2)C(=O)/C1=C\c1cccc(OC(=O)c2cccs2)c1` [MLS000534153] here?
**A.** The IC50 was greater than 50 µM.

**Q.** Which IC50 does the source give for `CSc1nc2cc3c(cc2n1C(=O)c1ccc(C)cc1)OCCO3` [MLS000544330] here?
**A.** Its IC50 is 2.22 µM.

**Q.** How did the IC50 turn out when `CN1C(=O)C(=NOC(=O)c2ccccc2)c2ccccc21` [MLS000556117] was run?
**A.** Its IC50 is 25.9 µM.

**Q.** Which IC50 does the source give for `CCOC(=O)Cc1csc(NC(=O)c2sc3nc4ccc(CC)cc4cc3c2N)n1` [MLS000556627] here?
**A.** The IC50 was greater than 50 µM.

**Q.** Which IC50 does the source give for `CCCCCC(=O)Nc1cccc([C+]2CC3(CC(C(N)=O)N(C(=O)c4cc([N+](=O)[O-])cc([N+](=O)[O-])c4C)C3)O[N-]2)c1` (configuration not stated) [MLS000561980] here?
**A.** Its IC50 is 34.4 µM.

**Q.** Which IC50 does the source give for `Cc1cc(C)c(S(=O)(=O)ON2C(=O)c3ccccc3C2=O)cc1C` [MLS000577081] here?
**A.** The IC50 was 1.01 µM.

**Q.** With `Cc1ccc(S(=O)(=O)ON2C(=O)c3ccccc3C2=O)c(C)c1` [MLS000579570] as the molecule, how does the IC50 read?
**A.** Its IC50 is 1.08 µM.

**Q.** With `CC(C)CNC(=O)Nc1ccc(F)c(Cl)c1` [MLS000679438] as the molecule, how does the IC50 read?
**A.** The IC50 was greater than 50 µM.

**Q.** Which IC50 does the source give for `CCOC(=O)c1ccc(NC(=O)Nc2cccc(C)n2)cc1` [MLS000679527] here?
**A.** The IC50 was greater than 50 µM.

**Q.** Which IC50 does the source give for `NS(=O)(=O)c1ccc(CCNC(=O)Cc2ccccc2[N+](=O)[O-])cc1` [MLS000689902] here?
**A.** Its IC50 is greater than 50 µM.

**Q.** For `COc1c(C)cc(C(=O)C2CCCN(S(=O)(=O)c3c(C)noc3C)C2)cc1C` (configuration not stated) [MLS000693702], which IC50 is on record?
**A.** Its IC50 is greater than 50 µM.

**Q.** How did the IC50 turn out when `COc1cc2c(cc1/C=C/[N+](=O)[O-])OCO2` [MLS000706395] was run?
**A.** Its IC50 is greater than 50 µM.

**Q.** For `COc1cc([N+](=O)[O-])cc2sc(NC(C)=O)nc12` [MLS000708454], which IC50 is on record?
**A.** The IC50 was greater than 50 µM.

**Q.** `Cc1nc2cc(NC(=O)Nc3cccc(F)c3)ccc2n1C` [MLS000708492] was tested. Which IC50 did it give?
**A.** The IC50 was greater than 50 µM.

**Q.** How did the IC50 turn out when `Cc1ccccc1C(=O)NC1CCSC1=O` (configuration not stated) [MLS000709097] was run?
**A.** The IC50 was greater than 50 µM.

**Q.** With `Cc1cc(C)cc(NC(=O)c2ccc([N+](=O)[O-])o2)c1` [MLS000710428] as the molecule, how does the IC50 read?
**A.** Its IC50 is greater than 50 µM.

**Q.** How did the IC50 turn out when `COc1ccc(S(=O)(=O)NCCOc2cccc3cccnc23)cc1OC` [MLS000716779] was run?
**A.** The IC50 was greater than 50 µM.

**Q.** `CCOc1cccc2c1OC1(C)CC2NC(=O)N1Cc1ccccc1` (configuration not stated) [MLS000730538] was tested. Which IC50 did it give?
**A.** Its IC50 is greater than 50 µM.

**Q.** With `COc1ccc(C=NNC(=O)CCn2cnc3ccccc32)cc1` [MLS000769034] as the molecule, how does the IC50 read?
**A.** The IC50 was greater than 50 µM.
